Measurements: PMC4256409, “Role of Phenylalanine and Valine^10 Residues in the Antimicrobial Activity and Cytotoxicity of Piscidin-1” (PLoS ONE, 2014)
Where no end group is shown, it is not given here.

What was measured:
MRSA CCARM 3126 = type: cell-based, Methicillin-resistant S. aureus; settings: MRSA CCARM 3126; broth microdilution, 37°C, 16 h; three independent experiments in triplicate, SD 14.0%
Description: (§1) Escherichia coli KCTC 1682, E. coli KCTC 2593, E. coli KCTC 2571, Salmonella typhimurium KCTC 1926, Pseudomonas aeruginosa KCTC 1637, P. aeruginosa KCTC 2004, P. aeruginosa KCTC 2513, Bacillus subtilis KCTC 3068, B. subtilis KCTC 1021, B. subtilis KCTC 1022, Staphylococcus epidermidis KCTC 1917, Staphylococcus aureus KCTC 1621, S. aureus KCTC 1916, and S. aureus KCTC 3881 were purchased from the Korean Collection for Type Cultures, Korea Research Institute of Bioscience & Biotechnology (Taejon, Korea). Methicillin-resistant S. aureus (MRSA) (CCARM 3089, CCARM 3090, CCARM 3108, CCARM 3114, and CCARM 3126), multidrug-resistant E. coli (MDREC) (CCARM 1229 and CCARM 1238), multidrug-resistant S. typhimurium (MDRST) (CCARM 8003, CCARM 8007, and CCARM 8009), multidrug-resistant Acinetobacter baumanii (MDRAB) (CCARM 12005, CCARM 12035, CCARM 12036, CCARM 12037), and multidrug-resistant P. aeruginosa (MDRPA) (CCARM 2002, CCARM 2003, CCARM 2095, and CCARM 2163) were obtained from the Culture Collection of Antibiotic-Resistant Microbes (CCARM) at Seoul Women’s University in Korea. The antimicrobial activities of the peptides against selected organisms, including three Gram-positive, three Gram-negative, and five antibiotic-resistant bacteria, were determined using a broth microdilution assay. Briefly, single colonies of bacteria and fungi were inoculated into Luria-Bertani (LB) medium and cultured overnight at 37°C. An aliquot of the culture was transferred to 10 mL of fresh LB and incubated for an additional 3–5 h at 37°C until it reached the mid-logarithmic phase. Two-fold serial dilutions of the peptides in 1% peptone were prepared. The serial dilutions (100 µL) were added to 100 µL of cells (2×10^6 colony-forming units (CFU)/mL) in 96-well microtiter plates and incubated at 37°C for 16 h. […] MIC values were calculated as the average of triplicate measurements from three independent assays.

MDRST CCARM 8009 = type: cell-based, multidrug-resistant S. typhimurium; settings: broth microdilution, 37°C, 16 h, three independent experiments in triplicate, SD 14.0%
MRSA CCARM 3090 = type: cell-based, Methicillin-resistant S. aureus; settings: MRSA CCARM 3090; broth microdilution, 37°C, 16 h; three independent experiments in triplicate, SD 14.0%
Description: as §1

S. epidermidis KCTC1917 = type: cell-based, Staphylococcus epidermidis; settings: S. epidermidis KCTC1917; broth microdilution, 37°C, 16 h; three independent experiments in triplicate, SD 14.0%
Protocol: (§2) The antimicrobial activities of the peptides against selected organisms, including three Gram-positive, three Gram-negative, and five antibiotic-resistant bacteria, were determined using a broth microdilution assay. Briefly, single colonies of bacteria and fungi were inoculated into Luria-Bertani (LB) medium and cultured overnight at 37°C. An aliquot of the culture was transferred to 10 mL of fresh LB and incubated for an additional 3–5 h at 37°C until it reached the mid-logarithmic phase. Two-fold serial dilutions of the peptides in 1% peptone were prepared. The serial dilutions (100 µL) were added to 100 µL of cells (2×10^6 colony-forming units (CFU)/mL) in 96-well microtiter plates and incubated at 37°C for 16 h. […] MIC values were calculated as the average of triplicate measurements from three independent assays.

S. typhimurium KCTC1926 = type: cell-based, Salmonella typhimurium; settings: S. typhimurium KCTC1926; broth microdilution, 37°C, 16 h; three independent experiments in triplicate, SD 14.0%
Protocol: as §2

MDRAB CCARM 12036 = type: cell-based, multidrug-resistant Acinetobacter baumanii; settings: broth microdilution, 37°C, 16 h, three independent experiments in triplicate, SD 14.0%
Protocol: as §2

MRSA CCARM3089 = type: cell-based, Methicillin-resistant S. aureus; settings: MRSA CCARM3089; broth microdilution, 37°C, 16 h; three independent experiments in triplicate, SD 14.0%
P. aeruginosa KCTC2513 = type: cell-based, Pseudomonas aeruginosa; settings: P. aeruginosa KCTC2513; broth microdilution, 37°C, 16 h; three independent experiments in triplicate, SD 14.0%
Protocol: as §2

MDRAB CCARM 12005 = type: cell-based, multidrug-resistant Acinetobacter baumanii; settings: broth microdilution, 37°C, 16 h, three independent experiments in triplicate, SD 14.0%
Protocol: as §2

[1] = test system: Standard bacterial strains; type: cell-based; settings: average over the 14 standard bacterial strains of Table 2
MDRPA CCARM 2095 = type: cell-based, multidrug-resistant P. aeruginosa; settings: broth microdilution, 37°C, 16 h, three independent experiments in triplicate, SD 14.0%
Protocol: as §2

E. coli KCTC2593 = type: cell-based, Escherichia coli; settings: E. coli KCTC2593; broth microdilution, 37°C, 16 h; three independent experiments in triplicate, SD 14.0%
Description: as §1

B. subtilis KCTC1022 = type: cell-based, Bacillus subtilis; settings: B. subtilis KCTC1022; broth microdilution, 37°C, 16 h; three independent experiments in triplicate, SD 14.0%
Protocol: as §2

“FFHHIFRGIVHVGKTIHRLVTG [Pis-1, reference compound]” gave an MIC (MRSA CCARM 3126) of 4.0 µM, an MIC (MDRST CCARM 8009) of 4.0 µM and an MIC (MRSA CCARM 3090) of 8.0 µM. The MIC (S. epidermidis KCTC1917) was 2.0 µM, the MIC (S. typhimurium KCTC1926) was 2.0 µM and the MIC (MDRAB CCARM 12036) was 2.0 µM. For the same sequence, the MIC (MRSA CCARM3089) was 8.0 µM, the MIC (P. aeruginosa KCTC2513) was 2.0 µM and the MIC (MDRAB CCARM 12005) was 2.0 µM. For the same sequence, the “Average MIC” value [1] was 1.5 µM, the MIC (MDRPA CCARM 2095) was 2.0 µM and the MIC (E. coli KCTC2593) was 1.0 µM. It also gave an MIC (B. subtilis KCTC1022) of 1.0 µM.
